The EC25 is the point of the concentration-response curve where the effect stands at 25%.

The species named for assay [1] is Rattus norvegicus. The experiment in a line: Contractile force determined in rat atria. The class given is functional.
The species entered for assay [2] is Rattus norvegicus. The experiment in a line: Functional refractory period (FRP) determined in rat atria.
The mark [3] stands for this setting: Rattus norvegicus, read-out: EC25.

On to `Nc1ncnc2c1ncn2C1CCCC(N2CCN(C(c3ccccc3)c3ccccc3)CC2)C1O` (stereo in doubt), for which the EC25 in assay [1] amounted to 1.5 µM; in assay [2] it was 0.9 µM.

Take `Nc1ncnc2c1ncn2C[C@@]1(O)CC[C@H]2CN(C(c3ccccc3)c3ccccc3)CCN2C1`: the 25% effect concentration (EC25) in assay [1] (setting [3]) and in assay [2] (setting [3]) was 15 µM each time.

For `Nc1ncnc2c1ncn2C1CCCC(N2CCN(C(c3ccccc3)c3ccccc3)CC2)C1O` (trans isomer), the 25% effect concentration (EC25) was found to be 1.2 µM in assay [1] and 9 µM in assay [2].

On to `Nc1ncnc2c1ncn2C1CCCC(N2CCN(C(c3ccccc3)c3ccccc3)CC2)C1O` (cis isomer), for which the EC25 in assay [1] amounted to 20 µM; in assay [2] it was 17 µM.

Take `Nc1ncnc2c1ncn2C[C@]1(O)CC[C@H]2CN(C(c3ccccc3)c3ccccc3)CCN2C1`: the concentration for an effect of 25% (EC25) was 6.5 µM in assay [1] (setting [3]) and 1.8 µM in assay [2] (setting [3]).

Turning to `Nc1ncnc2c1ncn2CC(O)CN1CCN(C(c2ccccc2)c2ccccc2)CC1` (configuration not stated), the concentration for an effect of 25% (EC25) was 0.5 µM in assay [1] (setting [3]) and 0.2 µM in assay [2] (setting [3]).
